Measurements reported in publication PMC11311031, “Novel Thienopyrimidine-Hydrazinyl Compounds Induce DRP1-Mediated Non-Apoptotic Cell Death in Triple-Negative Breast Cancer Cells” (Cancers, 2024).
Entries after “also recorded” stand apart in the source; their conditions may differ.

Experiments:
Assay type in all cases: cell-based
[1] = system: mitochondrial membrane potential in BT-20 cells; assay: Mitochondrial membrane potential (TMRE dye); conditions: 200 μM, 4 h, p < 0.0001
Experimental: The mitochondrial membrane potential (MMP) was determined using fluorescence microscopy by staining cellular mitochondria with tetramethylrhodamine ethyl ester (TMRE) dye (Invitrogen, Waltham, MA, USA). […] As a positive control, cells were incubated with carbonyl cyanide 3-chlorophenylhydrazone (CCCP) (TargetMol, Boston, MA, USA), a compound that uncouples mitochondrial oxidative phosphorylation, at a concentration of 200 μM, for 4 h. After incubation with the test compounds, the media was carefully removed from each well and incubated for 20 min with 0.4 µM of TMRE in PBS. Finally, the dye was carefully removed and replaced with fresh PBS. The cells were then imaged to detect MMP using a Cytation 7 Cell Imaging Multi-Mode Reader.

[2] = system: ROS in BT-20 cells; assay: Intracellular ROS (H2DCFDA dye); conditions: 2 μM, 2 h, p < 0.0001
Source text: It has been reported that ROS can cause the death of cancer cells by inducing apoptosis. Indeed, high levels of ROS activate the p53 enzyme system, which promotes late-stage apoptosis by upregulating the levels of pro-apoptotic proteins such as BAK and BAX and downregulating the levels of anti-apoptotic proteins such as BCL-2, BCL-xL, and MCL-1 [120]. In addition, ROS induce permeabilization of the outer mitochondrial membrane by opening the mitochondrial permeability transition pore (mPTP). This alters the electrochemical proton gradient across the mitochondria, causing the release of pro-apoptotic molecules into the cytoplasm, which are involved in apoptotic cell death. […] Cellular esterases hydrolyze the acetyl groups after the dye is taken up by cells, resulting in the formation of H2DCF [124]. Subsequently, intracellular ROS oxidize H2DCF to produce 2′,7′-dichlorofluorescein, which emits green fluorescence (excitation and emission wavelengths of 485 nm and 522 nm, respectively).

[3] = system: BT-20 cells; assay: MTT cell cytotoxicity assay; conditions: Homo sapiens, 72 h incubation, read-out: IC50 ± SD, BT-20, MTT Assay
Experimental: (§1) The cytotoxic efficacy of thienopyrimidine derivatives was determined as previously described, using 3 different assays: (1) (3-(4,5-dimethylthiazol-2-yl)-2,5-diphenyltetrazolium bromide) (MTT) (Avantor, Radnor, PA, USA), (2) CellTiter-Blue (CTB) (Promega, Madison, WI, USA), and (3) sulforhodamine B (SRB) (TargetMol, Boston, MA, USA) assay. For these assays, cells were harvested using 0.05% trypsin-ethylenediamine-tetraacetic acid (EDTA) (Corning, Corning, NY, USA), seeded at a density of 3000–5000 cells/well in a 96-well plate, and incubated at 37 °C overnight. The next day, the cells were incubated with different concentrations of the test compounds (0.1, 0.3, 1, 3, 10, 30, or 100 μM) and incubated for 72 h. […] In contrast, vehicle control (cells incubated in drug-free medium) contained less than 0.1% of DMSO.
For the MTT assay, 4 mg/mL MTT was added to the cells and incubated for 3 h to allow for the conversion of MTT (yellow) to formazan crystals (dark blue). Following incubation, the media was aspirated and DMSO was added to solubilize the formazan crystals. The Cytation 7 Cell Imaging Multi-Mode Reader (Agilent Technologies, Winooski, VT, USA) was used to measure the absorbance at 570 nm.

[4] = system: BT-20 cells; assay: Nuclear staining with Hoechst 33342; conditions: 1 μM, 24 h
Experimental: Briefly, 100,000 cells/well of BT-20 cells were plated in a 6-well plate containing clear sterile coverslips. […] Next, the cells were stained with 0.5% v/v of the Hoechst 33342 dye for 15 min. 4% paraformaldehyde at a concentration of 4%, was used to fix cells at room temperature for another 15 min. After 1 wash with PBS, the cells were mounted on a clear slide, using Fluoromount-G (SouthernBiotech, Birmingham, AL, USA). The slides were visualized to detect nuclear fragmentation using the Cytation 7 Cell Imaging Multi-Mode Reader (Agilent Technologies, Winooski, VT, USA), which provided data related to nuclear fragmentation.

[5] = system: caspases (-3, -7, -8, -9), BAX, BAK, BCL-2, PARP in BT-20 cells; assay: Western blot of apoptotic and anti-apoptotic proteins; conditions: 1 μM
Experimental: Subsequently, the cells were washed with ice-cold PBS. The subcellular fraction was obtained by scraping the cells using a cell scrapper in ice-cold cytosolic lysis buffer. Next, the lysates were left on ice for 15 min. Nonyl phenoxypolyethoxylethanol (NP-40) (10% v/v) was introduced in the lysates and subjected to 2–3 min incubation. The lysates were then centrifuged for 10 min at 4 °C and 14,000 rpm. The resultant protein concentration in the lysates was determined using bicinchoninic acid (BCA) assay. Thirty micrograms of the proteins were loaded and separated on a 10% acrylamide SDS-PAGE gel, transferred to a PVDF membrane, and incubated overnight at 4 °C, with primary antibodies against cleaved caspase-3, caspase-3, cleaved caspase-7, caspase-7, cleaved caspase-9, caspase-9, cleaved caspase-8, caspase-8, BAX, BAK, BCL-2, cleaved PARP, PARP, p-DRP1, DRP1, p-MFF, MFF, FIS1, MFN1, MFN2, OPA1, and β-actin. […] ImageJ software (National Institutes of Health, Bethesda, MD, USA) was used to quantify the protein. Cellular proteins were quantified as a ratio to β-actin and were normalized to the vehicle control. The densitometry readings/intensity ratio of each band, andthe original whole western blot (uncropped blots) showing all the bands with the molecular weight markers, is shown in the Supplemental Materials.

[6] = system: BT-20 cells; assay: Sulforhodamine B (SRB) assay; conditions: Homo sapiens, 72 h incubation, read-out: IC50 ± SD, BT-20, SRB Assay
Experimental: as §1
For the SRB assay, the cells were fixed with 50% (w/v) tri-chloroacetic acid (TCA) (Avantor, Radnor, PA, USA) and incubated at 4 °C for 1 h. The cells were washed 4 times with deionized, distilled water, and air-dried at room temperature. The next day, the cells were stained with 0.04% (w/v) SRB solution for 1 h at room temperature and washed 4 times with 1% (v/v) acetic acid (Avantor, Radnor, PA, USA). After airdrying the plates overnight, 10 mM Tris base solution (pH 10.5) was added to each well and pipetted thoroughly to dissolve the dye, and absorbance was read at 510 nm.

[7] = system: cytochrome c in BT-20 cells; assay: Immunofluorescence of cytochrome c; conditions: 1 μM, p < 0.0001
Experimental: Immunofluorescence assays were conducted as previously described. In total, 100,000 BT-20 cells per well were plated on coverslips in a 6-well plate. […] After the incubation period, the media was carefully removed, and the cells were fixed using 1 mL of 4% paraformaldehyde for 15 min at room temperature. The cells were rinsed three times with PBS for 5 min. Five hundred microliters of 0.2% Trition-X100 was added to each well for 10 min to permeabilize the cells. The cells were washed three times with PBS for 5 min each. The cells were then blocked with 3% bovine serum albumin (BSA) in PBS, containing 0.1% Tween, for 2 h at room temperature before incubation with either cytochrome c (1:250), DRP1 (1:50), or phosphorylated-DRP1(1:450) monoclonal antibodies (Cell Signaling Technology, Danvers, MA, USA) overnight at 4 °C. The cells were incubated with either anti-mouse Alexa Fluor™ 594 (Invitrogen, Waltham, MA, USA) or anti-rabbit Alexa Fluor™ 488 at room temperature for 1 h. Nuclei were finally stained with Hoechst 33342 (ImmunoChemistry Technologies, Davis, CA, USA) for 10 min. Images were captured using a Cytation 7 Cell Imaging Multi-Mode Reader.

[8] = system: caspase 3/7 activity in BT-20 cells; assay: Caspase-Glo 3/7 activity assay
Experimental: Caspase-Glo® 3/7 Assay (Promega, Madison, WI, USA) was used to study the caspase 3/7 activity in BT-20 cells incubated with lead compounds. Briefly, 3000 BT-20 TNBC cells/well were plated in an opaque 96-well plate. […] Next, a mixture of Caspase-Glo® 3/7 buffer and lyophilized Caspase-Glo® 3/7 substrate was equilibrated to room temperature. The plates were removed from the incubator and allowed to adjust to room temperature for 30 min. Next, 100 μL of the Caspase-Glo® 3/7 reagent was added to each well, and the samples were placed in a shaker for 30 s. After 3 h of incubation at room temperature, luminescence, which indicates cleavage of […] caspases (caspase-3 and -7), was measured using a microplate reader (Agilent Technologies, Winooski, VT, USA).

[9] = system: BT-20 cells; assay: CellTiter-Blue (CTB) assay; conditions: Homo sapiens, 72 h incubation, read-out: IC50 ± SD, BT-20, CTB Assay
Experimental: as §1
For the CTB assay, the CTB reagent was added to cells and incubated for 3 h to allow the reduction of resazurin (emits a blue color and low fluorescence) by metabolically active cells to resorufin (emits a pink color and high fluorescence). Finally, the plates were shaken for 10 s in a plate shaker, and fluorescence was measured at 560/590 nm.

[10] = system: mouse embryonic fibroblast (MEF) cells; assay: β-Galactosidase staining (senescence), positive control; conditions: 250 nM, 24 h
Experimental: BT-20 cells were plated at 4000/well into a 96-well plate and incubated overnight. […] Four thousand cells/well of senescent MEFs were also seeded. The plate was incubated for 24 h. Once 80–100% confluency was obtained, mouse embryonic fibroblast (MEF) cells were incubated with 250 nM of doxorubicin for 24 h to induce senescence (positive control), followed by a change in media. The cells were incubated for another week and the media was changed every 3–4 days.
The next day, the cells were washed with PBS and fixed with 3% formaldehyde for 5 min. The cells were washed with PBS twice, followed by an addition of β-galactosidase (Research Products International, Racine, WI, USA) stain. The cells were placed in a 37 °C incubator with no CO2 overnight and imaged to detect β-galactosidase staining the next day using the Color Brightfield channel on the Cytation 7 Imaging Multi-Mode Reader.

In the case of N#CC(C#N)=NNc1cccc(Cl)c1 [CCCP, carbonyl cyanide 3-chlorophenylhydrazone], the “TMRE fluorescence compared to vehicle control (positive control)” value [1] is reported as “significantly lower”.
With CC(=O)O[C@H]1C(=O)[C@@]2(C)[C@H]([C@H](OC(=O)c3ccccc3)[C@]3(O)C[C@H](OC(=O)[C@H](O)[C@@H](NC(=O)c4ccccc4)c4ccccc4)C(C)=C1C3(C)C)[C@]1(OC(C)=O)CO[C@@H]1C[C@@H]2O [PTX, Paclitaxel] the “ROS levels compared to vehicle control” value [2] was “significantly elevated”, the IC50 [3] was 50 nM and the “level of nuclear fragmentation (positive control)” value [4] was “significantly increased”. The “Bcl-2 levels compared to vehicle control” value [5] was “significant decrease”, the “levels of cleaved caspase-3, -7, -8, -9 and total caspase-8 compared to vehicle control” value [5] was “significantly upregulated” and the IC50 [6] was 50 nM. The “cytochrome c release compared to vehicle control” value [7] was “significantly enhanced”, the “level of bioluminescence (activation of caspase-3 and caspase-7)” value ([8]; 0.1 μM) was “significantly increased” and the “caspase-3 and 7 activity (Caspase-Glo 3/7)” value ([8]; 1 µM, n = 2) was “induced; also recorded: increased”. For the same compound, the IC50 [9] was 70 ± 30 nM.
In the case of COc1cccc2c1C(=O)c1c(O)c3c(c(O)c1C2=O)C[C@@](O)(C(=O)CO)C[C@@H]3O[C@H]1C[C@H](N)[C@H](O)[C@H](C)O1 [doxorubicin], the “SA-β-gal staining of MEF cells (positive control)” value [10] is reported as “stained blue”.
